The text below walks through data of ChEMBL document CHEMBL4304820, “Design, synthesis and biological evaluation of novel serotonin and dopamine receptor ligands being 6-bromohexyl saccharine derivatives” (Bioorg Med Chem Lett, 2019).

Test [1] deals with D(2) dopamine receptor (Rattus norvegicus, UniProt P61169). The test is described as follows: Displacement of [3H]raclopride from D2 receptor in rat brain striatum incubated for 60 mins by radioligand binding assay. The class given is tissue-based. (Loss of bound radioactivity is the signal in a displacement assay; it reports binding, not function.)
D(2) dopamine receptor (Rattus norvegicus, UniProt P61169), sequence (P61169 whole entry): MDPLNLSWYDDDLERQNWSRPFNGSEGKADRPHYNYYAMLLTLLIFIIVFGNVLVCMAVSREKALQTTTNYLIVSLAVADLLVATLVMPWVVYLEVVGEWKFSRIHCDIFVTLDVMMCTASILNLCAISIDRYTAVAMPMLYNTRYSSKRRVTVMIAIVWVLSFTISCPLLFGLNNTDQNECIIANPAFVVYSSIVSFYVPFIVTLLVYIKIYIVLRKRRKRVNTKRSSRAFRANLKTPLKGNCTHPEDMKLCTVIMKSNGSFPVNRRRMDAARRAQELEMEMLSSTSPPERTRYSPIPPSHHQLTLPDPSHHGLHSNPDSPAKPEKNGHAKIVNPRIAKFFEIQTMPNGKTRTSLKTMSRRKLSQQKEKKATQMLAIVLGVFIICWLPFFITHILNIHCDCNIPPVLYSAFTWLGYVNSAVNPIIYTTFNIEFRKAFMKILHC
Test [2] addresses T1, 5-hydroxytryptamine receptor 1A (Rattus norvegicus, UniProt P19327).
T1 sequence (P19327 whole entry): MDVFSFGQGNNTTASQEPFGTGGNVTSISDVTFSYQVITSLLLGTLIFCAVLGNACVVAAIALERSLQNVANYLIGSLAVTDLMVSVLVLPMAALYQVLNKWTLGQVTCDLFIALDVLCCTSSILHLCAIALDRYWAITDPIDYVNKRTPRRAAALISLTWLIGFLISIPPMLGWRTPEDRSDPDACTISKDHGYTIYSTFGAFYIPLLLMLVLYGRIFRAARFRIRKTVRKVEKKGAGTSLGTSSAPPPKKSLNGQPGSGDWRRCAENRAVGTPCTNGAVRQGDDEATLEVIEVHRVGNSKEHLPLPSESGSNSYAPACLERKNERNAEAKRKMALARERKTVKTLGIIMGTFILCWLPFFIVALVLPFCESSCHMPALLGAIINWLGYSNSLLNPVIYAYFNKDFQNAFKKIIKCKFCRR
The test is described as follows: Displacement of [3H]-8-OH-DPAT from 5HT1A receptor in rat brain hippocampus incubated for 60 mins by radioligand binding assay.

Test [3] concerns the target T2, D(2) dopamine receptor (Homo sapiens, UniProt P14416). The test is described as follows: Antagonist activity at human D2 receptor expressed in HEK293 cells assessed as cAMP accumulation incubated for 30 mins in presence of forskolin/dopamine by TR-FRET assay. The class given is functional, cell-based. A general note: Cyclic AMP is a second messenger, typically raised through Gs and lowered through Gi signalling.

In test [4] the target is 5-hydroxytryptamine receptor 6 (Homo sapiens, UniProt P50406). The test is described as follows: Displacement of [3H]LSD from full length human cloned 5HT6R expressed in HEK293 cells incubated for 1 hr by radioligand displacement assay. The class given is cell-based.
5-hydroxytryptamine receptor 6, sequence (P50406 whole entry): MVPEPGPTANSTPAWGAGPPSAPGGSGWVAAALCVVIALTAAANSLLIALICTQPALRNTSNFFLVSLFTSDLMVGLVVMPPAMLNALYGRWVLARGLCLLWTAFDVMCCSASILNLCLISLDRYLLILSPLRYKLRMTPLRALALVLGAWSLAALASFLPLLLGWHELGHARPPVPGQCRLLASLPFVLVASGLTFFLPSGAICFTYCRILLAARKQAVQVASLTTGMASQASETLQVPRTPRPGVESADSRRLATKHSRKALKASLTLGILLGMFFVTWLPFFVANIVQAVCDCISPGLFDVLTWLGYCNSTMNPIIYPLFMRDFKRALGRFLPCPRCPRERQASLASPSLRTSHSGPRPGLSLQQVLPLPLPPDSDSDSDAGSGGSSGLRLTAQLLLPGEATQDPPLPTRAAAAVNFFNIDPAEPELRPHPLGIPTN
The target of test [5] is 5-hydroxytryptamine receptor 7 (Homo sapiens, UniProt P34969). The test is described as follows: Displacement of [3H]5-CT from full length human cloned 5-HT7bR expressed in HEK293 cells incubated for 1 hr by radioligand displacement assay. The class given is cell-based.
5-hydroxytryptamine receptor 7, sequence (P34969 whole entry): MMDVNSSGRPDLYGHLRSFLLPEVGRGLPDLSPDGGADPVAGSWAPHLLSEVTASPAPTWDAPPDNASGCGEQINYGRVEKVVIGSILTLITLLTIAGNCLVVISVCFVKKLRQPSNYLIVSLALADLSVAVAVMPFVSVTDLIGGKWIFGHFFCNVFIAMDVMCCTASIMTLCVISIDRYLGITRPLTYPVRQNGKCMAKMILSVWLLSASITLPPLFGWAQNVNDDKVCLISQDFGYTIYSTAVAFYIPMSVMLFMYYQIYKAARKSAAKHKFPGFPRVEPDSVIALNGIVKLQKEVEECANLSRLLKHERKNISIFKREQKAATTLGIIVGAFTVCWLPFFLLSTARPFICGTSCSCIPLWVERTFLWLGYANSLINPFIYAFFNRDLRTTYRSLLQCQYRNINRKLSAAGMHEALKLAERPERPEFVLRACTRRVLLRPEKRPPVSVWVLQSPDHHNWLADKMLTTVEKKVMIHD
Test [6] deals with 5-hydroxytryptamine receptor 2A (Homo sapiens, UniProt P28223). The test is described as follows: Displacement of [3H]ketanserin from full length human cloned 5HT2A receptor expressed in CHO-K1 cells incubated for 1 hr by radioligand displacement assay. The class given is cell-based.
5-hydroxytryptamine receptor 2A (Homo sapiens, UniProt P28223), sequence (P28223 whole entry): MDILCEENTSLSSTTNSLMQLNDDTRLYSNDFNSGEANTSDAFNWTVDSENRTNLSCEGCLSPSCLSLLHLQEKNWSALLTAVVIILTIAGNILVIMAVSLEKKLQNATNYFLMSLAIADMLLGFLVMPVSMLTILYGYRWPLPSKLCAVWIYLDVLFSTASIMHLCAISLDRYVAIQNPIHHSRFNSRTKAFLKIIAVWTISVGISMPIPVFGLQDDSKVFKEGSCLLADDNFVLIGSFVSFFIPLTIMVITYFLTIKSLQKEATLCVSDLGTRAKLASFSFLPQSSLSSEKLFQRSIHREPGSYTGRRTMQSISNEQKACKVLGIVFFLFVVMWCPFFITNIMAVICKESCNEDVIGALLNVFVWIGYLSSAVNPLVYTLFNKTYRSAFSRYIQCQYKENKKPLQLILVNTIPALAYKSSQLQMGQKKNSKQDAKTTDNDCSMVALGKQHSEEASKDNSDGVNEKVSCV
Test [7] addresses T3, 5-hydroxytryptamine receptor 1A (Homo sapiens, UniProt P08908).
T3 sequence (P08908 whole entry): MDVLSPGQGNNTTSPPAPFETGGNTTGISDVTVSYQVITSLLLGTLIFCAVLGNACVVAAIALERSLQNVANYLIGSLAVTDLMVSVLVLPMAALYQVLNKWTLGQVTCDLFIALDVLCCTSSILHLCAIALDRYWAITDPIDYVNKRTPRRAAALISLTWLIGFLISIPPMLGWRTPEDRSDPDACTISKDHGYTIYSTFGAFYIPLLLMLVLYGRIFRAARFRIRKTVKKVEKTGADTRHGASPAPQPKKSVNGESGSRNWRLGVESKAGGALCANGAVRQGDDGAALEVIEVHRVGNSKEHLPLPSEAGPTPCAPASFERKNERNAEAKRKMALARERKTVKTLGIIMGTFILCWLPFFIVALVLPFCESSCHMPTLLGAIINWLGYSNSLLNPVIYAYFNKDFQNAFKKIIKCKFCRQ
The test is described as follows: Displacement of [3H]-8-OH-DPAT from full length human cloned 5HT1A receptor expressed in HEK293 cells incubated for 1 hr by radioligand displacement assay. The class given is cell-based.

Test [8] addresses T4, 5-hydroxytryptamine receptor 1A (Homo sapiens) (UniProt P08908).
T4 sequence (whole entry): T3 sequence (P08908 whole entry)
The test is described as follows: Antagonist activity at human 5 HT1A receptor expressed in HEK293 cells assessed as cAMP accumulation incubated for 30 mins in presence of forskolin/8-OH-DPAT by TR-FRET assay. It counts as functional, cell-based.

Test [9] concerns the target T2, D(2) dopamine receptor. The test is described as follows: Displacement of [3H]raclopride from full length human cloned D2L receptor expressed in HEK293 cells incubated for 1 hr by radioligand displacement assay. The class given is cell-based.
The target in test [10] is T1, 5-hydroxytryptamine receptor 1A. The test is described as follows: Displacement of [3H]-8-OH-DPAT from 5HT1A receptor in Wistar rat brain cerebral cortex incubated for 30 mins by liquid scintillation spectrometry. The class given is tissue-based.
The target of test [11] is 5-hydroxytryptamine receptor 2A (Rattus norvegicus, UniProt P14842). The test is described as follows: Displacement of [3H]ketanserin from 5-HT2A receptor in Wistar rat brain frontal cortex incubated for 30 mins by radioligand binding assay. It counts as tissue-based.
5-hydroxytryptamine receptor 2A (Rattus norvegicus, UniProt P14842), sequence (P14842 whole entry): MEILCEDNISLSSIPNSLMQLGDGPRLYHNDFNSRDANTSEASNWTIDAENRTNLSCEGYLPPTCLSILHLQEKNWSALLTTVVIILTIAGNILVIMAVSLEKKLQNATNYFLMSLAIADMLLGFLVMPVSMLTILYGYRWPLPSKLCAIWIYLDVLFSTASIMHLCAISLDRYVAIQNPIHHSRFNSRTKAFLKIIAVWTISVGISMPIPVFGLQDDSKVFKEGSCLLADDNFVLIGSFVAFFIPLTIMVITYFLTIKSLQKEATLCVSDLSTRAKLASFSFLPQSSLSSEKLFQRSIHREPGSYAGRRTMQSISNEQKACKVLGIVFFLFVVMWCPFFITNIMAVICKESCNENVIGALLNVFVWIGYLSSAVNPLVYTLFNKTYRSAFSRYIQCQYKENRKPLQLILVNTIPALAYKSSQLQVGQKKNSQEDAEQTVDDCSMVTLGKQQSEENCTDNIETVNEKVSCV
In test [12] the target is T2, D(2) dopamine receptor. The test is described as follows: Displacement of [3H]raclopride from human cloned D2 receptor expressed in HEK293 cells by radioligand binding assay. It counts as cell-based.
The target of test [13] is T3, 5-hydroxytryptamine receptor 1A. The test is described as follows: Agonist activity at human 5 HT1A receptor expressed in HEK293 cells assessed as inhibition of forskolin-stimulated cAMP accumulation incubated for 30 mins by TR-FRET assay. The class given is functional, cell-based.

T2 sequence (P14416 whole entry): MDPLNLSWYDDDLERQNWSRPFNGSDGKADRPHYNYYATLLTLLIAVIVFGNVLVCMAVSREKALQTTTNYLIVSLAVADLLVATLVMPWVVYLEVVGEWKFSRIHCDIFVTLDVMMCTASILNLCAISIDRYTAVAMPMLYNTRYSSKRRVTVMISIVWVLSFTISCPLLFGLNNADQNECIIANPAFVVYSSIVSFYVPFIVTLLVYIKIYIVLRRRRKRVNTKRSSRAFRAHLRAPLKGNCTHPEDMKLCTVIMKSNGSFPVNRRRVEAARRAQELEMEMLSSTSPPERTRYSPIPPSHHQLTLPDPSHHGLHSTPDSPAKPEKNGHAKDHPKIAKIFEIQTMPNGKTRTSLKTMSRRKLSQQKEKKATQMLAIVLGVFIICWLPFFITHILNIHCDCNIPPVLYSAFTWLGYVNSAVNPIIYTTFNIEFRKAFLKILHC

As to `O=c1ccc2ccc(OCCCCN3CCN(c4cccc5sccc45)CC3)cc2[nH]1` [BREXPIPRAZOLE], the values for the Ki in test [1] and in [2] were 3.8 nM and 0.09 nM, respectively.

As to `O=C1c2ccccc2S(=O)(=O)N1CCCCCCN1CCN(c2cccc3ccccc23)CC1`, the Kb in test [3] and in test [8] was 14 nM throughout. Also, the Ki in test [4] turned out to be 157 nM; in test [5] it was 20 nM; in test [6], 91 nM; in [7], 9 nM; in [9], 8 nM.

Take `O=C1c2ccccc2S(=O)(=O)N1CCCCCCN1CCN(c2cccc(Cl)c2)CC1`: the Ki came to 372 nM in test [4]; 233 nM in [5]; 361 nM in test [6]; 21 nM in test [7]; 39 nM in test [9].

Take `O=C1c2ccccc2S(=O)(=O)N1CCCCN1CCN(c2cccc(C(F)(F)F)c2)CC1`: the results for the Ki in test [10] and in [11] were 100 nM and 2250 nM, respectively.

Consider `O=C1c2ccccc2S(=O)(=O)N1CCCCCCN1CCN(c2ccccc2F)CC1`, for which the Ki in test [4] came out at 1620 nM; in test [5], 322 nM; in [6], 307 nM; in test [7], 12 nM; in test [9] it was 24 nM.

In the case of `O=C1c2ccccc2S(=O)(=O)N1CCCCCCN1CCN(c2ccc(Cl)c(Cl)c2)CC1`, the Ki in test [4] amounted to 132 nM; in [5], 258 nM; in test [6] it was 283 nM; in [7] it was 54 nM; in [9], 105 nM.

`O=C1c2ccccc2S(=O)(=O)N1CCCCCCN1CCN(c2ccccc2C(F)(F)F)CC1`: the Ki in test [4] came out at 1270 nM; in test [5], 195 nM; in test [6], 922 nM; in test [7], 156 nM; in [9], 27 nM.

With `O=C1c2ccccc2S(=O)(=O)N1CCCCCCN1CCN(c2ncccn2)CC1`, the Ki in test [4] amounted to 104 nM; in test [5], 35 nM; in test [6] it was 183 nM; in test [7], 24 nM; in test [9], 51 nM.

Regarding `O=C1c2ccccc2S(=O)(=O)N1CCCCCCN1CCN(c2ccc(Cl)cc2)CC1`, the Ki in test [7] amounted to 84 nM; in test [9], 28 nM.

In the case of `O=C1c2ccccc2S(=O)(=O)N1CCCCCCN1CCN(c2cccc(Cl)c2Cl)CC1`, the Ki in test [4] is 920 nM; in [5] it was 119 nM; in [6] it was 209 nM; in [7], 58 nM; in test [9] it was 132 nM.

In test [12], `O=C1c2ccccc2S(=O)(=O)N1CCCCN1CCN(c2ncccn2)CC1` [IPSAPIRONE] came in with a Ki of 1220 nM.

For `O=C1c2ccccc2S(=O)(=O)N1CCCCCCN1CCN(c2nsc3ccccc23)CC1`, the inhibitory constant (Ki) in test [4] was 58 nM; in [5] it was 45 nM; in [6], 23 nM; in [7], 23 nM; in test [9], 9 nM.

Take `COc1ccccc1N1CCN(CCCCCCN2C(=O)c3ccccc3S2(=O)=O)CC1`: the Ki in [7] worked out at 91 nM; in test [9] it was 61 nM.

`O=C1c2ccccc2S(=O)(=O)N1CCCCCCN1CCN(c2ccccc2)CC1`: the Ki amounted to 971 nM in [4]; 192 nM in [5]; 321 nM in test [6]; 20 nM in [7]; 48 nM in [9].

For `O=C1c2ccccc2S(=O)(=O)N1CCCCCCN1CCN(c2ccccn2)CC1`, the Ki was determined as 2350 nM in test [4]; 552 nM in test [5]; 1290 nM in test [6]; 13 nM in test [7]; 239 nM in [9].

Consider `O=C1c2ccccc2S(=O)(=O)N1CCCCCCN1CCN(c2ccccc2Cl)CC1`, for which the Ki in test [4] worked out at 459 nM; in test [5], 120 nM; in [6], 266 nM; in [7], 26 nM; in test [9] it was 45 nM.

Consider `COc1cccc(N2CCN(CCCCCCN3C(=O)c4ccccc4S3(=O)=O)CC2)c1`, for which the Ki in [4] turned out to be 921 nM; in test [5], 305 nM; in test [6], 342 nM; in test [7], 19 nM; in test [9], 113 nM.

On to `O=C1c2ccccc2S(=O)(=O)N1CCCCCCN1CCN(c2cccc(C(F)(F)F)c2)CC1`, for which the antagonist dissociation constant (Kb) in test [3] is 319 nM. The Ki was determined as 52 nM in [4]; 58 nM in test [5]; 167 nM in test [6]; 25 nM in [7]; 7 nM in test [9]. In addition, the EC50 in test [13] turned out to be 56 nM.

With `O=C1c2ccccc2S(=O)(=O)N1CCCCCCN1CCN(c2cccc3cccnc23)CC1`, the Kb came out at 10 nM in [3] and 7 nM in test [8]. For the same compound, the Ki turned out to be 1720 nM in [4]; 21 nM in test [5]; 205 nM in [6]; 4 nM in test [7]; 15 nM in test [9].

Turning to `COc1ccc(N2CCN(CCCCCCN3C(=O)c4ccccc4S3(=O)=O)CC2)cc1`, the Ki in test [7] was 327 nM; in test [9] it was 950 nM.

What is called Ki is the equilibrium dissociation constant of an inhibitor or competing ligand from its target. A low value points to higher affinity. In general, Kb refers to the affinity of an antagonist, worked out from how it opposes an agonist. The term EC50 denotes the concentration giving half of the maximal effect.
